In patent US5858684A, “Method of screening calcium receptor-active molecules” (priority 1995, dated 1999):
Entries after “also recorded” stand apart in the source; their conditions may differ. Where two headings read alike, the source gives them in different places.

Key:
[1] = test system: increases in [Ca2+]i elicited by extracellular Ca2+ in bovine parathyroid cells; experiment: block of extracellular Ca2+-induced [Ca2+]i increase / Ca2+ influx in bovine parathyroid cells; format: cell-based; settings: for effect of pretreatment on increases in [Ca2+]i elicited by extracellular Ca2+ / fall in [Ca2+]i: 100 to 1000 μM; for fall in [Ca2+]i: buffer containing 2 mM CaCl2
Method: (§2) The cells were then pelleted, resuspended in the same buffer, but lacking the ester, and incubated a further 15 minutes at 37° C. The cells were subsequently washed twice with PCB containing 0.5 mM CaCl2 and 0.5% BSA and maintained at room temperature (about 20° C.). Immediately before use, the cells were diluted five-fold with prewarmed 0.5 mM CaCl2 -PCB to obtain a final BSA concentration of 0.1%. The concentration of cells in the cuvette used for fluorescence recording was 1-2×10^6 /ml.
(§3) The fluorescence of indicator-loaded cells was measured at 37° C. in a spectrofluorimeter (Biomedical Instrumentation Group, University of Pennsylvania, Philadelphia, Pa.) equipped with a thermostated cuvette holder and magnetic stirrer using excitation and emission wavelengths of 340 and 510 nm, respectively. […] Leakage of dye is dependent on temperature and most occurs within the first 2 minutes after warming the cells in the cuvette. Dye leakage increases only very slowly thereafter. To correct the calibration for dye leakage, cells were placed in the cuvette and stirred at 37° C. for 2-3 minutes. The cell suspension was then removed, the cells pelleted, and the supernatant returned to a clean cuvette. […] This estimate was subtracted from the apparent Fmin.

net positive charge = format: physicochemical
[2] = test system: parathyroid cell calcium receptor; format: cell-based; settings: for EC50: screened as in Example 1
Method: For example, bovine parathyroid cells loaded with fura-2 are initially suspended in buffer containing 0.5 mM CaCl2. A test substance is added to the cuvette in a small volume (5-15 μl) and changes in the fluorescence signal are measured. Cumulative increases in the concentration of the test substance are made in the cuvette until some predetermined concentration is achieved or no further changes in fluorescence are noted.
This section describes procedures used to obtain and treat parathyroid cells from calves and humans. […] Human parathyroid glands, were obtained from patients undergoing surgical removal of parathyroid tissue for primary or uremic hyperparathyroidism (uremic HPT), and were treated similarly to bovine tissue.
Glands were trimmed of excess fat and connective tissue and then minced with fine scissors into cubes approximately 2-3 mm on a side. Dissociated parathyroid cells were prepared by collagenase digestion and then purified by centrifugation in Percoll buffer. The resultant parathyroid cell preparation was essentially devoid of red blood cells, adipocytes, and capillary tissue as assessed by phase contrast microscopy and Sudan black B staining. Dissociated and purified parathyroid cells were present as small clusters containing 5 to 20 cells.
as §2, §3
Dissociated bovine parathyroid cells were purified on gradients of Percoll and cultured overnight in serum-free medium.

[3] = molecular target: T1, calcium receptor expressed from human parathyroid cell mRNA in Xenopus oocytes (Homo sapiens, UniProt P41180); experiment: response of Xenopus oocytes injected with human parathyroid mRNA; format: cell-based; settings: human parathyroid mRNA
T1 sequence (P41180 20-1078): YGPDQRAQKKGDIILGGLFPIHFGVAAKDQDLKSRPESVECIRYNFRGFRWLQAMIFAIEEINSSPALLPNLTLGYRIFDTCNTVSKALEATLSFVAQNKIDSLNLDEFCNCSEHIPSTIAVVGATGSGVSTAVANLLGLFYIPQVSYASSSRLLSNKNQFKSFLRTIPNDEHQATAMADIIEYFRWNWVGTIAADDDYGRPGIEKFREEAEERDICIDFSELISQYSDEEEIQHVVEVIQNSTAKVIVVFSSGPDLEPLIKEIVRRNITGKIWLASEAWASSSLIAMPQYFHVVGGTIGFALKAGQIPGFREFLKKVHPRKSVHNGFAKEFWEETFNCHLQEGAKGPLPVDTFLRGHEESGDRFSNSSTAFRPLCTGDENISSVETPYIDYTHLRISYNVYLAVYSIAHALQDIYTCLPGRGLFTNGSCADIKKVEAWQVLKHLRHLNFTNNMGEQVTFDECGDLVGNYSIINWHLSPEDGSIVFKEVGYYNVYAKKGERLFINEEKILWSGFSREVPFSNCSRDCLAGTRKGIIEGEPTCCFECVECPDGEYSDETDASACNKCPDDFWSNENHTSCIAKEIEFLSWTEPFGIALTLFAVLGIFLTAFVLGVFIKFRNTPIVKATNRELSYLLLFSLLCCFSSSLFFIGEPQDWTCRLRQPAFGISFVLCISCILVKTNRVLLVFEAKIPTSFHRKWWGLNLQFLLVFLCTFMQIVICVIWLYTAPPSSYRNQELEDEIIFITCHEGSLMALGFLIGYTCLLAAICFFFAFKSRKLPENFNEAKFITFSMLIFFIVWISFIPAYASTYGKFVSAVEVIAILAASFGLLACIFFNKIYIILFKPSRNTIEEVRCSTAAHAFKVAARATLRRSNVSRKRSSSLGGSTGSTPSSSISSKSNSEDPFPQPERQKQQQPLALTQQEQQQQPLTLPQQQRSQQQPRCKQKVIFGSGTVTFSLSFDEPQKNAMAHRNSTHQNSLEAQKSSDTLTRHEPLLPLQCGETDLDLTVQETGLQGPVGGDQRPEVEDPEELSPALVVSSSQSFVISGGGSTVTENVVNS
Method: Oocytes were injected with poly(A)^+ -enriched mRNA from human parathyroid tissue (hyperplastic glands from a case of secondary HPT).
Glass capillary tubes (1 mm diameter) were pulled to a fine tip and manually broken to achieve a tip diameter of about 15 μmeters. A droplet of mRNA (1 ng/nl in diethylpyrocarbonate (DEPC)-treated water) was placed onto […]® and drawn into the capillary tube by suction. The capillary tube was then connected to a picospritzer (WPI Instruments) and the volume of the air-pulsed droplets adjusted to deliver 50 ng of mRNA (typically 50 nl). A 35-mm culture dish with a patch of nylon stocking fixed to the bottom was used to secure the oocytes during injection of mRNA into the vegetal pole. The injected oocytes were placed into a 35-mm culture dish containing MBS, 100 μg/ml penicillin and 100 μg/ml streptomycin and incubated at 18° C. for 3 days.
(§1) Following incubation, an oocyte was placed into a 100-μl plastic chamber and superfused with MBS at a flow rate of 0.5 ml/min using a peristaltic pump. Test molecules or inorganic polycations were added by rapidly moving the tubing into different buffers. Recording and current-passing electrodes were constructed from thin-wall capillary tubing pulled to a resistance of 1-3 Mohms and filled with 3M KCl. […] Currents were recorded directly onto a strip chart recorder.
Using this screen allows one to test for an action directly on the calcium receptor. Oocytes expressing the calcium receptor also responded to several molecules active on intact parathyroid cells when screened as follows. […] This offers rather compelling evidence showing that these molecules act on the calcium receptor or on some other protein intimately associated with its function.

C-cell calcium receptor = molecular target: T2, C-cell calcium receptor (Rattus norvegicus, UniProt P48442); format: cell-based; set-up: Neoplastic C-cells derived from a rat medullary thyroid carcinoma (rMTC 6-23); host or cells: rMTC 6-23; settings: rMTC 6-23 cells, fura-2; inactive = no increase in cytosolic Ca2+ at 1-5 mM
T2 sequence (P48442 20-1079): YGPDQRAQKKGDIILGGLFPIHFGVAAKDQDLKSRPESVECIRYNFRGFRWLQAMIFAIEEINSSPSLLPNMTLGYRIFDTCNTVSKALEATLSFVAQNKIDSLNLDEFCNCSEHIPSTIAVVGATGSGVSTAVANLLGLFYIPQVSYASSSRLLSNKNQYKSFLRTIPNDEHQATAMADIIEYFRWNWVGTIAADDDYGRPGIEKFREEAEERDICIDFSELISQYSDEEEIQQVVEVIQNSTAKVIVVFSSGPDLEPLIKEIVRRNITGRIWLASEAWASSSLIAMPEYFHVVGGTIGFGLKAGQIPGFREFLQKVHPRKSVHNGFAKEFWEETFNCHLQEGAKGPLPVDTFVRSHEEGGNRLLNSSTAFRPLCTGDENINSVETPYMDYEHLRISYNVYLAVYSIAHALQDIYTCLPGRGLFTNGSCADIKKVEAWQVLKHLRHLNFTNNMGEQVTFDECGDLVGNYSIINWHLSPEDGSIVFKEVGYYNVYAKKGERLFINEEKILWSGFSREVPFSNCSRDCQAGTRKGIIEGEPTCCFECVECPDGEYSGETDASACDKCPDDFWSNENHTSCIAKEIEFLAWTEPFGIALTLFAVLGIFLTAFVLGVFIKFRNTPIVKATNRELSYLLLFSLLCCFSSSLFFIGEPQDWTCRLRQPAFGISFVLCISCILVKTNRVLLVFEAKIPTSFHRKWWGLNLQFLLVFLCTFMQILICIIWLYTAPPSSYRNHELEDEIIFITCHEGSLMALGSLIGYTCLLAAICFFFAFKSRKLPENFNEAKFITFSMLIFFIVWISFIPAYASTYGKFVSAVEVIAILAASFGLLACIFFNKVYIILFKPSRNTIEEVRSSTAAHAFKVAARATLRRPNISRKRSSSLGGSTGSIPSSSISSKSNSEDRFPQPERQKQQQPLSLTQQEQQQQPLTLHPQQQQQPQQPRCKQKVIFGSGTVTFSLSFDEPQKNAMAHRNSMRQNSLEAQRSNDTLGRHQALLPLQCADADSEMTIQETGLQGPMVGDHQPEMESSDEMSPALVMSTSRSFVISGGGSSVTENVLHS
Excerpt: To assess the effects of molecular polycations on C-cells, a neoplastic cell line, derived from a rat medullary thyroid carcinoma (rMTC 6-23 cells) was used.

[4] = test system: osteoclast calcium receptor; experiment: increase in [Ca2+]i in indo-1-loaded rat osteoclasts; format: cell-based
[5] = molecular target: T3, bovine parathyroid cell calcium receptor (BoPCaR 1) (Bos taurus, UniProt P35384); experiment: Cl- current in Xenopus oocytes expressing BoPCaR 1; format: cell-based; settings: 1 mM extracellular Ca2+
T3 construct: Xenopus oocytes were injected with BoPCaR 1, the 5.3 Kb cDNA encoding a bovine parathyroid cell calcium receptor; expressed in transfected cells; host or cells: Xenopus laevis oocytes injected with cRNA/cDNA of BoPCaR 1
T3 sequence (P35384 20-1085): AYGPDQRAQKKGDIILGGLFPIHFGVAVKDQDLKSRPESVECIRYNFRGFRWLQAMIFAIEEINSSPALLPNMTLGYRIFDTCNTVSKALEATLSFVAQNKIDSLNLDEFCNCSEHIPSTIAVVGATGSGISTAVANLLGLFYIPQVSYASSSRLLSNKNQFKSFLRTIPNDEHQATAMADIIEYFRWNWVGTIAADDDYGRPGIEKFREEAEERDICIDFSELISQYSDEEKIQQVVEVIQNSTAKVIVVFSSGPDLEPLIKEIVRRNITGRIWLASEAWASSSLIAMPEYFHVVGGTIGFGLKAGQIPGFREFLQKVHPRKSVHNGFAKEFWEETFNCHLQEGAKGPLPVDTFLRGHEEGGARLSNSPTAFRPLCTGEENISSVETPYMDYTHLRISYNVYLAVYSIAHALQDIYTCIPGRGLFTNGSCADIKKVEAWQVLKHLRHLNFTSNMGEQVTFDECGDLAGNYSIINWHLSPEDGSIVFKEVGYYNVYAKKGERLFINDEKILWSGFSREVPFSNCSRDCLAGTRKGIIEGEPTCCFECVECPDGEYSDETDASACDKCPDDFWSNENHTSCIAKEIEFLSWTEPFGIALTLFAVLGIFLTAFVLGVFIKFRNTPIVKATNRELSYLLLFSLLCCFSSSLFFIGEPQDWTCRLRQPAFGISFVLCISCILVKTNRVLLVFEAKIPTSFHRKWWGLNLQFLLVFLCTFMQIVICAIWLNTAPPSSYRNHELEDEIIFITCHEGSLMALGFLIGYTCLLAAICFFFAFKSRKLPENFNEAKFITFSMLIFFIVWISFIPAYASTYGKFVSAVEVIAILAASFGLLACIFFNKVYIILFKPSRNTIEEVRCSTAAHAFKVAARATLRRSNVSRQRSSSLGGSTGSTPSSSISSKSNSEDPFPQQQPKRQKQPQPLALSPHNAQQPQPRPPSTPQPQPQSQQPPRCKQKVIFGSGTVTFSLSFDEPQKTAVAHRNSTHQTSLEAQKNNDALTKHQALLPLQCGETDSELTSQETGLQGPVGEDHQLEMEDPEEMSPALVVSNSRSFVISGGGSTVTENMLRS
Method: as §1
The techniques used to clone the parathyroid calcium receptor are briefly described in this example; a more complete description of the techniques is provided in preceding sections, which describe techniques which may be used to clone additional forms of the Ca^2+ -receptor from other cell types. Poly(A^+)-enriched mRNA was initially prepared from bovine parathyroid glands by extracting with guanidinium thiocyanate, centrifugation through CsCl and oligo(dT) cellulose chromatography. […] No such currents were elicited in control eggs injected with water.
These responses are mediated by the following series of biochemical events:
Xenopus oocytes were injected with BoPCaR 1, the 5.3 Kb cDNA encoding a bovine parathyroid cell calcium receptor as described in Example 25. After two to three days, Cl^- currents were examined in the oocytes using a two-electrode voltage clamp.
Xenopus oocytes were injected with BoPCaR 1 as described in Example 25. After two to three days, Cl^- currents were examined in the oocytes using two electrode voltage clamp.

SMILES: NCCCCCCCCCCCCN [1,12-diaminododecane (DADD), 1,12-diaminododecane]
- effect of pretreatment on increases in [Ca2+]i elicited by extracellular Ca2+ [1]: depresses steady-state, but not transient increases
- fall in [Ca2+]i [1]: prompt fall
- Net (+) Charge (Table 1) (net positive charge): +2

SMILES: C1CNCCNCCNCCNCCNCCN1 [Hexacyclen, 1,4,7,10,13,16-hexaaza-cyclooctadecane]
- relative potency (fold) ([2]; hexacyclen vs NPS 383): 7 fold
- relative potency (fold) ([2]; hexacyclen vs […]): 25 fold
- EC50 ([2]; parathyroid cells, read-out: EC50 (Table 1)): 20 µM
- concentration effective in oocytes [3]: 135 µM
- Net (+) Charge (Table 1) (net positive charge): +6

SMILES: NCCCNCCCCNCCCNCCCN(O)CCCNC(=O)Cc1c[nH]c2cccc(O)c12 [NPS 015]
- EC50 C-CELL (Table 6) (C-cell calcium receptor): inactive

SMILES: NCCCNCCCCNCCCNCCCN(O)CCCNC(=O)Cc1c[nH]c2ccccc12 [NPS 017]
- EC50 OSTEOCLAST (Table 6) ([4]; rat osteoclasts, indo-1, inactive = no increase in cytosolic Ca2+ at 1-5 mM): inactive
- Cl- current [5]: oscillatory increases

SMILES: NCCCCCCCCCCCCNC(=O)Cc1ccc(O)cc1O [NPS 021]
- change in [Ca2+]i by compound alone ([2]; 0.5 mM Ca2+): caused no change; also recorded: does not by itself cause any change
- effect on increase in [Ca2+]i elicited by extracellular Ca2+ ([1]; 200 μM, [Ca2+] 0.5 to 2 mM): inhibited the increase
- IC50 ([1]; Bos taurus, fura-2 loaded bovine parathyroid cells, read-out: IC50 for blocking increase in [Ca2+]i elicited by extracellular Ca2+): ~200 µM
- increase in [Ca2+]i evoked by extracellular Ca2+ ([1]; around 500 μM): abolished

SMILES: COc1ccc(CC(=O)NCCCCCCCCCCCCN)cc1OC [NPS 384]
- increase in [Ca2+]i (words) ([2]; 300 μM): did not evoke an increase
- block of influx of extracellular Ca2+ ([1]; 300 μM): blocked influx of extracellular
- effect of pretreatment on increases in [Ca2+]i elicited by extracellular Ca2+ [1]: depresses steady-state, but not transient increases
- fall in [Ca2+]i [1]: prompt fall

SMILES: CC(Cc1ccccc1)NCCC(c1ccccc1)c1ccccc1 (stereo not drawn) [Prenylamine]
- increase in [Ca2+]i (words) ([4]; rat osteoclasts): mobilization

SMILES: NCCCCNCCCN [Spermidine, spermidine]
- EC50 ([2]; read-out: EC50 (Table 3)): 2000 µM
- increase in [Ca2+]i in osteoclasts, overall [4]: none of these caused any large increase
- Net (+) Charge (Table 1) (net positive charge): +3

SMILES: CCN(CC)CCCCCCCCOC(=O)c1cc(OC)c(OC)c(OC)c1 [TMB-8]
- potentiation of mobilization of intracellular Ca2+ elicited by extracellular divalent cations ([2]; 100 μM): potentiated the mobilization of intracellular; also recorded: potentiated transient increases
- change in [Ca2+]i ([2]; 100 μM, 0.5 mM extracellular Ca2+): evoked no change
- increase in [Ca2+]i at intermediate extracellular Ca2+ ([2]; 100 μM, 1-[…] extracellular Ca2+): small, but robust increase
- block of influx of extracellular Ca2+ ([1]; 100 μM): blocked the influx of extracellular
